{
  "source": "patent US11400081B2",
  "about": "“Compounds” (The University of Sheffield, priority 2017, dated 2022)",
  "note": "Where a name gives a salt, the structure may show the parent alone. No end group written: not given here.",
  "data": [
    {"target": "T1, AM2 receptor (CALCRL+RAMP3) (Homo sapiens, UniProt O60896+Q16602)", "T1 construct": "host or cells: 1321N1", "T1 sequence (Q16602 23-461)": "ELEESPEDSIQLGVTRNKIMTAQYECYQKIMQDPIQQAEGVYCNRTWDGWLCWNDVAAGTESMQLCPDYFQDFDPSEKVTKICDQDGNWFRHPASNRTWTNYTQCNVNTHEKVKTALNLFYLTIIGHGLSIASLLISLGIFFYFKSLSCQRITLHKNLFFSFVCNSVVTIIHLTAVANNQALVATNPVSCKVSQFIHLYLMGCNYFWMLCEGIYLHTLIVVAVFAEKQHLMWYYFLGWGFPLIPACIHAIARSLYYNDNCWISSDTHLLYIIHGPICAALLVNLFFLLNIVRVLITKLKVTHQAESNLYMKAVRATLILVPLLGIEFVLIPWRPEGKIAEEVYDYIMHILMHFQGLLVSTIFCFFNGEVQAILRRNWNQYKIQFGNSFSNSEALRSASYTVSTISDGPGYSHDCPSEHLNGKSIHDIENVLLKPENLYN", "T1 sequence (O60896 24-148)": "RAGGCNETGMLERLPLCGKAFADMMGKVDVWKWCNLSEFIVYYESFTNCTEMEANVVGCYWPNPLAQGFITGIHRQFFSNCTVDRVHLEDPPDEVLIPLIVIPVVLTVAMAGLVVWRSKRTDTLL", "test": "AM2 receptor inhibition, LANCE TR-FRET cAMP agonist-antagonist competition assay", "type": "cell-based", "conditions": "inhibition of AM induced cAMP activation; 1321N1 cells transfected with CALCRL+RAMP3; read-out: AM2 pIC50 (converted)", "units": {"IC50": "µM"}, "values": [
      {"compound": "CNCc1ccccc1CN(CC(=O)Nc1ccc2c(c1)C[C@@]1(C2)C(=O)Nc2ncccc21)C(=O)C(C)(C)C(F)(F)F", "note": "[Example 96, 3,3,3-trifluoro-2,2-dimethyl-N-[[2-(methylaminomethyl)phenyl]methyl]-N-[2-oxo-2-[[(3R)-2-oxospiro[1H-pyrrolo[2,3-b]pyridine-3,2′-indane]-5′-yl]amino]ethyl]propanamide 2,2,2-trifluoroacetate]", "IC50": 0.049},
      {"compound": "CNCc1ccccc1CN(CC(=O)Nc1ccc2c(c1)C[C@@]1(C2)C(=O)Nc2ncccc21)C(=O)C(C)(C)CC(F)(F)F", "note": "[Example 97, 4,4,4-Trifluoro-2,2-dimethyl-N-[[2-(methylaminomethyl)phenyl]methyl]-N-[2-oxo-2-[[(3R)-2-oxospiro[1H-pyrrolo[2,3-b]pyridine-3,2′-indane]-5′-yl]amino]ethyl]butanamide 2,2,2-trifluoroacetate]", "IC50": 0.0603},
      {"compound": "CCC1(C(=O)N(CC(=O)Nc2ccc3c(c2)C[C@@]2(C3)C(=O)Nc3ncccc32)Cc2ccccc2CNC)CCOCC1", "note": "[Example 98, 4-Ethyl-N-[[2-(methylaminomethyl)phenyl]methyl]-N-[2-oxo-2-[[(3R)-2-oxospiro[1H-pyrrolo [2,3-b]pyridine-3,2′-indane]-5′-yl]amino]ethyl]tetrahydropyran-4-carboxamide 2,2,2 trifluoroacetate]", "IC50": 0.0214},
      {"compound": "NCc1ccccc1CN(CC(=O)Nc1ccc2c(c1)C[C@@]1(C2)C(=O)Nc2ncccc21)C(=O)C1(C(F)(F)F)CC1", "note": "[Example 99, N-[[2-(Aminomethyl)phenyl]methyl]-N-[2-oxo-2-[(2-oxospiro[1H-pyrrolo[2,3-b]pyridine-3,2′-indane]-5′-yl)amino]ethyl]-1-(trifluoromethyl)cyclopropylcarboxamide 2,2,2-trifluoroacetate]", "IC50": 0.245},
      {"compound": "CNCc1ccccc1CN(CC(=O)Nc1ccc2c(c1)C[C@@]1(C2)C(=O)Nc2ncccc21)C(=O)C12CC(NC(C)=O)(C1)C2", "note": "[Example 100, 3-Acetamido-N-[[2-(methylaminomethyl)phenyl]methyl]-N-[2-oxo-2-[[(3R)-2-oxospiro[1H-pyrrolo[2,3-b]pyridine-3,2′-indane]-5′-yl]amino]ethyl]bicyclo[1.1.1]pentane-1-carboxamide 2,2,2-trifluoroacetate]", "IC50": 0.309},
      {"compound": "CC(C)(C)C(=O)N(CC(=O)Nc1ccc2c(c1)C[C@@]1(C2)C(=O)Nc2ncccc21)C1CNCc2ccccc21", "note": "(stereo partly shown) [Example 101, 2,2-Dimethyl-N-[2-oxo-2-[(2-oxospiro[1H-pyrrolo[2,3-b]pyridine-3,2′-indane]-5′-yl)amino]ethyl]-N-(1,2,3,4-tetrahydroisoquinolin-4-yl)propanamide 2,2,2-trifluoroacetate]", "IC50": 0.0398},
      {"compound": "CNCc1ccccc1CN(CC(=O)Nc1cc2c(cn1)CC1(C2)C(=O)Nc2ncccc21)C(=O)C(C)(C)C", "note": "(stereo not shown) [Example 103, N-(2-((Methylamino)methyl)benzyl)-N-(2-oxo-2-((2′-oxo-1′,2′,5,7-tetrahydrospiro[cyclopenta[c]pyridine-6,3′-pyrrolo[2,3-b]pyridin]-3-yl)amino)ethyl)pivalamide]", "IC50": 0.024},
      {"compound": "CNCc1ccccc1CN(CC(=O)Nc1ccc2c(n1)CC1(C2)C(=O)Nc2ncccc21)C(=O)C(C)(C)C", "note": "(stereo not shown) [Example 104, N-(2-((methylamino)methyl)benzyl)-N-(2-oxo-2-((2′-oxo-1′,2′,5,7-tetrahydrospiro[cyclopenta[b]pyridine-6,3′-pyrrolo[2,3-b]pyridin]-2-yl)amino)ethyl)pivalamide]", "IC50": 0.151},
      {"compound": "CNCc1ccccc1CN(CC(=O)Nc1cnc2c(c1)CC1(C2)C(=O)Nc2ncccc21)C(=O)C(C)(C)C", "note": "(stereo not shown) [Example 105, N-(2-((methylamino)methyl)benzyl)-N-(2-oxo-2-((2′-oxo-1′,2′,5,7-tetrahydrospiro[cyclopenta[b]pyridine-6,3′-pyrrolo[2,3-b]pyridin]-3-yl)amino)ethyl)pivalamide 2,2,2-trifluoroacetate]", "IC50": 0.0501}
    ]},
    {"tested_on": "human pancreatic cancer cells", "test": "not given", "conditions": "local injection directly into tumours, pancreatic cancer model; cited from earlier work", "values": [
      {"compound": "AM22-52: \"the AM peptide antagonist (AM22-52)\"; \"peptide and antibody AM2 receptor inhibitors are known such as AM22-52\" (TVQKLAHQIYQFTDKDKDNVAPRSKISPQGY; ends and bridges not checked; UniProt P35318 116-146, looked up, fragment)", "tumour size compared to controls": "reduced tumour size significantly"}
    ]}
  ]
}
